Data published in PubChem BioAssay AID1259407 (Chemical Carcinogenesis Research Information System (CCRIS), 2018).
The source made the active and inactive calls. How the calls were made is not given here.

System: CCRIS mutagenicity, Ames/micronucleus/aberration tests
Test: CCRIS mutagenicity studies
[1] = Test System: AMES SALMONELLA TYPHIMURIUM, Strain/Indicator: TA98, Metabolic Activation: NONE, Method: STANDARD PLATE
[2] = Test System: AMES SALMONELLA TYPHIMURIUM, Strain/Indicator: TA98, Metabolic Activation: RAT, LIVER, S-9, AROCLOR 1254, Method: STANDARD PLATE
[3] = Test System: MOUSE LYMPHOMA, Strain/Indicator: L5178Y (TK+/TK-), Metabolic Activation: NONE, Method: SUSPENSION/PLATE
[4] = Test System: AMES SALMONELLA TYPHIMURIUM, Strain/Indicator: TA98, Metabolic Activation: NONE, Method: PREINCUBATION
[5] = Test System: AMES SALMONELLA TYPHIMURIUM, Strain/Indicator: TA100, Metabolic Activation: NONE, Method: PREINCUBATION
[6] = Test System: AMES SALMONELLA TYPHIMURIUM, Strain/Indicator: TA100, Metabolic Activation: NONE, Method: STANDARD PLATE
[7] = Test System: AMES SALMONELLA TYPHIMURIUM, Strain/Indicator: TA100, Metabolic Activation: RAT, LIVER, S-9, AROCLOR 1254, Method: STANDARD PLATE
[8] = Test System: AMES SALMONELLA TYPHIMURIUM, Strain/Indicator: TA1535, Metabolic Activation: NONE, Method: STANDARD PLATE
[9] = Test System: AMES SALMONELLA TYPHIMURIUM, Strain/Indicator: TA1535, Metabolic Activation: RAT, LIVER, S-9, AROCLOR 1254, Method: STANDARD PLATE
[10] = End Point: IN VITRO CHROMOSOMAL ABERRATIONS, Test System: CHL CELLS, Metabolic Activation: NONE
[11] = End Point: IN VITRO CHROMOSOMAL ABERRATIONS, Test System: CHL CELLS, Metabolic Activation: RAT, LIVER, S-9, SODIUM PHENOBARBITAL AND 5,6-BENZOFLAVONE

Which results are given for `[O-][N+](=Nc1ccc2c(c1)Cc1ccccc1-2)c1ccc2c(c1)Cc1ccccc1-2`?
mutagenic call [1]: inactive; negative; mutagenic call [2]: inactive; negative

What does the source list for `CC/C=C\C#N`?
mutagenic call [3]: active; positive. reevaluation of results: positive; mutagenic call (Test System: Mouse lymphoma, Strain/Indicator: L5178Y (tk+/tk-), Metabolic Activation: Rat, Liver, S-9, Aroclor 1254, Method: Suspension/plate): active; positive

Which mutagenic call [4] does the source give for `CC(c1ccccc1)N(C)C` (stereo not given) here?
The mutagenic call was “inactive; negative”.

What about the mutagenic call (Test System: AMES SALMONELLA TYPHIMURIUM, Strain/Indicator: TA98, Metabolic Activation: RAT, LIVER, S-9, PCB, Method: PREINCUBATION) of the same compound?
The mutagenic call was “inactive; negative”.

What about the mutagenic call [5] of the same compound?
Its mutagenic call is “inactive; negative”.

And the mutagenic call (Test System: AMES SALMONELLA TYPHIMURIUM, Strain/Indicator: TA100, Metabolic Activation: RAT, LIVER, S-9, PCB, Method: PREINCUBATION)?
The mutagenic call was “inactive; negative”.

`COC(C)(C)CC(C)=O` was tested. Which mutagenic call (Test System: AMES SALMONELLA TYPHIMURIUM, Strain/Indicator: TA98, Metabolic Activation: HAMSTER, LIVER, S-9, AROCLOR 1254 (10%), Method: PREINCUBATION) did it give?
The mutagenic call was “inactive; negative”.

What about the mutagenic call [4] of the same compound?
Its mutagenic call is “inactive; negative”.

And the mutagenic call (Test System: AMES SALMONELLA TYPHIMURIUM, Strain/Indicator: TA98, Metabolic Activation: RAT, LIVER, S-9, AROCLOR 1254 (10%), Method: PREINCUBATION)?
Its mutagenic call is “inactive; negative”.

And the mutagenic call (Test System: AMES SALMONELLA TYPHIMURIUM, Strain/Indicator: TA100, Metabolic Activation: HAMSTER, LIVER, S-9, AROCLOR 1254 (10%), Method: PREINCUBATION)?
The mutagenic call was “inactive; negative”.

What about the mutagenic call [5] of the same compound?
Its mutagenic call is “inactive; negative”.

And the mutagenic call (Test System: AMES SALMONELLA TYPHIMURIUM, Strain/Indicator: TA100, Metabolic Activation: RAT, LIVER, S-9, AROCLOR 1254 (10%), Method: PREINCUBATION)?
The mutagenic call was “inactive; negative”.

And the mutagenic call (Test System: AMES SALMONELLA TYPHIMURIUM, Strain/Indicator: TA1535, Metabolic Activation: HAMSTER, LIVER, S-9, AROCLOR 1254 (10%), Method: PREINCUBATION)?
Its mutagenic call is “inactive; negative”.

What about the mutagenic call (Test System: AMES SALMONELLA TYPHIMURIUM, Strain/Indicator: TA1535, Metabolic Activation: NONE, Method: PREINCUBATION) of the same compound?
Its mutagenic call is “inactive; negative”.

And the mutagenic call (Test System: AMES SALMONELLA TYPHIMURIUM, Strain/Indicator: TA1535, Metabolic Activation: RAT, LIVER, S-9, AROCLOR 1254 (10%), Method: PREINCUBATION)?
Its mutagenic call is “inactive; negative”.

What about the mutagenic call (Test System: AMES SALMONELLA TYPHIMURIUM, Strain/Indicator: TA1537, Metabolic Activation: HAMSTER, LIVER, S-9, AROCLOR 1254 (10%), Method: PREINCUBATION) of the same compound?
Its mutagenic call is “inactive; negative”.

What about the mutagenic call (Test System: AMES SALMONELLA TYPHIMURIUM, Strain/Indicator: TA1537, Metabolic Activation: NONE, Method: PREINCUBATION) of the same compound?
Its mutagenic call is “inactive; negative”.

And the mutagenic call (Test System: AMES SALMONELLA TYPHIMURIUM, Strain/Indicator: TA1537, Metabolic Activation: RAT, LIVER, S-9, AROCLOR 1254 (10%), Method: PREINCUBATION)?
The mutagenic call was “inactive; negative”.

Which mutagenic call [1] does the source give for `C=Cc1ccncc1` here?
The mutagenic call was “inactive; negative”.

What about the mutagenic call [2] of the same compound?
Its mutagenic call is “inactive; negative”.

And the mutagenic call [6]?
The mutagenic call was “inactive; negative”.

What about the mutagenic call [7] of the same compound?
The mutagenic call was “inactive; negative”.

And the mutagenic call [8]?
Its mutagenic call is “inactive; negative”.

And the mutagenic call [9]?
The mutagenic call was “inactive; negative”.

And the mutagenic call (Test System: AMES SALMONELLA TYPHIMURIUM, Strain/Indicator: TA1538, Metabolic Activation: NONE, Method: STANDARD PLATE)?
Its mutagenic call is “inactive; negative”.

And the mutagenic call (Test System: AMES SALMONELLA TYPHIMURIUM, Strain/Indicator: TA1538, Metabolic Activation: RAT, LIVER, S-9, AROCLOR 1254, Method: STANDARD PLATE)?
The mutagenic call was “inactive; negative”.

And the mutagenic call (Test System: UDS RAT HEPATOCYTES, Strain/Indicator: THY INCORP, Metabolic Activation: NONE)?
Its mutagenic call is “inactive; negative”.

For `Cc1ccc(NC(=O)CBr)cc1`, which mutagenic call (Test System: AMES SALMONELLA TYPHIMURIUM, Strain/Indicator: TA100, Metabolic Activation: MOUSE, LIVER, S-9, AROCLOR 1254, Method: STANDARD PLATE) is on record?
The mutagenic call was “inactive; negative”.

What about the mutagenic call [6] of the same compound?
The mutagenic call was “inactive; negative”.

With `Cc1cnc2cc(C)c3c(nc(N)n3C)c2n1` as the compound, how does the mutagenic call [2] read?
The mutagenic call was “active; positive”.

How did the mutagenic call [6] turn out when `Cc1ccc(S(=O)(=O)OCc2ccc([N+](=O)[O-])cc2)cc1` was run?
Its mutagenic call is “active; positive”.

For `BrCc1ccc2c(c1)-c1cccc3cccc-2c13`, which mutagenic call [1] is on record?
Its mutagenic call is “active; positive”.

What about the mutagenic call [6] of the same compound?
Its mutagenic call is “active; positive”.

With `CC(=O)Nc1cc(N(CCOC(C)=O)CCOC(C)=O)ccc1N=Nc1ccc([N+](=O)[O-])cc1Cl` as the compound, how does the mutagenic call [10] read?
The mutagenic call was “inactive; negative”.

What about the mutagenic call [11] of the same compound?
Its mutagenic call is “inactive; negative”.

With `O=c1c(O)c(-c2ccc(O)cc2)oc2cc(O)cc(O)c12` as the compound, how does the mutagenic call (Test System: AMES SALMONELLA TYPHIMURIUM, Strain/Indicator: TA97A, Metabolic Activation: NONE, Method: STANDARD PLATE) read?
Its mutagenic call is “inactive; negative”.

And the mutagenic call (Test System: AMES SALMONELLA TYPHIMURIUM, Strain/Indicator: TA97A, Metabolic Activation: RAT, LIVER, S-9, AROCLOR 1254, Method: STANDARD PLATE)?
Its mutagenic call is “active; positive”.

And the mutagenic call (Test System: AMES SALMONELLA TYPHIMURIUM, Strain/Indicator: TA98, Metabolic Activation: HAMSTER, LIVER, S-9, AROCLOR 1254, Method: STANDARD PLATE)?
Its mutagenic call is “active; positive”.

And the mutagenic call [1]?
The mutagenic call was “inactive; negative”.

And the mutagenic call (Test System: AMES SALMONELLA TYPHIMURIUM, Strain/Indicator: TA98, Metabolic Activation: RAT, LIVER, S-9, 5,6-BENZOFLAVONE AND/OR SODIUM PHENOBARBITAL, Method: PREINCUBATION)?
Its mutagenic call is “active; positive”.

And the mutagenic call [2]?
Its mutagenic call is “active; positive”.

What about the mutagenic call (Test System: AMES SALMONELLA TYPHIMURIUM, Strain/Indicator: TA98, Metabolic Activation: RAT, LIVER, S-105, 5,6-BENZOFLAVONE AND/OR SODIUM PHENOBARBITAL, Method: PREINCUBATION) of the same compound?
Its mutagenic call is “inactive; negative”.

And the mutagenic call [6]?
Its mutagenic call is “inactive; negative”.

What about the mutagenic call (Test System: AMES SALMONELLA TYPHIMURIUM, Strain/Indicator: TA102, Metabolic Activation: NONE, Method: STANDARD PLATE) of the same compound?
The mutagenic call was “inactive; negative”.

And the mutagenic call (Test System: AMES SALMONELLA TYPHIMURIUM, Strain/Indicator: TA102, Metabolic Activation: RAT, LIVER, S-9, AROCLOR 1254, Method: STANDARD PLATE)?
Its mutagenic call is “active; positive”.

And the mutagenic call (Test System: AMES SALMONELLA TYPHIMURIUM, Strain/Indicator: TA1535, Metabolic Activation: HAMSTER, LIVER, S-9, AROCLOR 1254, Method: STANDARD PLATE)?
The mutagenic call was “inactive; negative”.

What about the mutagenic call [8] of the same compound?
The mutagenic call was “inactive; negative”.

And the mutagenic call [9]?
Its mutagenic call is “inactive; negative”.

And the mutagenic call (Test System: AMES SALMONELLA TYPHIMURIUM, Strain/Indicator: TA1537, Metabolic Activation: HAMSTER, LIVER, S-9, AROCLOR 1254, Method: STANDARD PLATE)?
Its mutagenic call is “active; positive”.

And the mutagenic call (Test System: AMES SALMONELLA TYPHIMURIUM, Strain/Indicator: TA1537, Metabolic Activation: NONE, Method: STANDARD PLATE)?
The mutagenic call was “inactive; negative”.

What about the mutagenic call (Test System: AMES SALMONELLA TYPHIMURIUM, Strain/Indicator: TA1537, Metabolic Activation: RAT, LIVER, S-9, AROCLOR 1254, Method: STANDARD PLATE) of the same compound?
The mutagenic call was “active; positive”.

And the mutagenic call [3]?
The mutagenic call was “active; positive. reevaluation of results: positive”.

And the mutagenic call (Test System: MOUSE LYMPHOMA, Strain/Indicator: L5178Y (TK+/TK-), Metabolic Activation: RAT, LIVER, S-9, AROCLOR 1254, Method: SUSPENSION/PLATE)?
The mutagenic call was “active; positive. reevaluation of results: equivocal”.

`Nc1ccc(/C=C/c2ccc(N)cc2)cc1` was tested. Which mutagenic call (Test System: AMES SALMONELLA TYPHIMURIUM, Strain/Indicator: TA98(1,8-DNP6), Metabolic Activation: NONE, Method: STANDARD PLATE) did it give?
Its mutagenic call is “inactive; negative”.

And the mutagenic call (Test System: AMES SALMONELLA TYPHIMURIUM, Strain/Indicator: TA98(1,8-DNP6), Metabolic Activation: S-9, Method: STANDARD PLATE)?
Its mutagenic call is “inactive; negative”.

What about the mutagenic call [1] of the same compound?
Its mutagenic call is “inactive; negative”.

And the mutagenic call [2]?
The mutagenic call was “active; positive”.

What about the mutagenic call (Test System: AMES SALMONELLA TYPHIMURIUM, Strain/Indicator: TA98, Metabolic Activation: S-9, Method: STANDARD PLATE) of the same compound?
The mutagenic call was “active; positive”.

What about the mutagenic call [6] of the same compound?
Its mutagenic call is “inactive; negative”.

And the mutagenic call [7]?
The mutagenic call was “inactive; negative”.

And the mutagenic call (Test System: AMES SALMONELLA TYPHIMURIUM, Strain/Indicator: TA100, Metabolic Activation: S-9, Method: STANDARD PLATE)?
Its mutagenic call is “inactive; negative”.

For `CCOC(Cl)CCl` (stereo not given), which mutagenic call [10] is on record?
Its mutagenic call is “active; positive (structural and ploidy changes)”.

And the mutagenic call [11]?
Its mutagenic call is “active; positive (structural changes)”.
